Laboratory results taken from US11034681B2, “Crystal form of indole derivative and preparation method and use thereof” (CHIA TAI TIANQING PHARMACEUTICAL GROUP CO., LTD., priority 2018, dated 2021).
pIC50: −log10 of the molar value. Each block holds one compound with its values, some of them ahead of it.

Key:
CRTH2 receptor [1] = biological target: T1, CRTH2 receptor (Homo sapiens, UniProt Q9Y5Y4); assay: PathHunter CHO-K1 CRTH2 β-arrestin antagonist assay; type: cell-based; conditions: PathHunter CHO-K1 CRTH2 β-arrestin cells, PGD2 agonist at EC80
T1 sequence (Q9Y5Y4 1-395): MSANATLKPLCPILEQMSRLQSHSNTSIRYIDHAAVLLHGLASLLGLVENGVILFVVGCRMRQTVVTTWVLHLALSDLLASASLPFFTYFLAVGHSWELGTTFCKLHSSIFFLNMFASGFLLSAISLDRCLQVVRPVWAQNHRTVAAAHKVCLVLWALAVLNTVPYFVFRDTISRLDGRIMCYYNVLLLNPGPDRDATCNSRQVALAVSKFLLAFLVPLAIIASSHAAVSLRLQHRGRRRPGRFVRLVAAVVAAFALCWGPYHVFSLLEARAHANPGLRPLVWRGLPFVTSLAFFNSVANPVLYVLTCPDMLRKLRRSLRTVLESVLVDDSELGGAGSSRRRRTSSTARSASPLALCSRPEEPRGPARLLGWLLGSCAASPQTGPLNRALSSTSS
Protocol: PathHunter® CHO-K1 CRTH2 β-arrestin cells (DiscoverX, catalogue number 93-0291C2) grew under standard conditions, and were inoculated into a white-wall 384-well microplate at a density of 5,000 cells/well. 20 μL of Cell Plating Reagent 1 was used in each well. Before the test, the cells were incubated overnight at 37° C./5% CO2. A test compound was serially diluted in DMSO with a dilution factor of 3-fold to give 8 concentrations of the test compound. Shortly before the test, the serially diluted test compound was further diluted with the test buffer to 5 times of the test concentration. 5 μL of the further diluted test compound was added to the cells, and the cells were incubated for 30 min at 37° C. The concentration of the solvent was 1%. 5 μL of 6×EC80 agonist (PGD2) buffer was added to the cells, and the cells were incubated for 90 min at 37° C. Measured signals were generated by one-time addition of 15 μL (50% v/v) of PathHunter detection mixture reagent and subsequent one-hour incubation. The microplate was read through the chemiluminescent signals of PerkinElmer Envision™ reader. Biological activity of the test compound was analyzed by CBIS data analysis suite (ChemInnovation, CA), and was denoted as IC50 value.

CRTH2 receptor [2] = biological target: T1, CRTH2 receptor; conditions: background statement; cited from earlier work
[3] = test system: mice model of chronic/acute asthma induced by ovalbumin (OVA) and aluminum hydroxide (Al(OH)3); assay: Mice model of chronic/acute asthma induced by OVA and Al(OH)3; type: in vivo
[4] = Stability test of crystal form A (impurity content); type: physicochemical
Excerpt: (§1) Samples placed under high temperature and high humidity conditions were sealed with aluminum foil, and small holes were made in the foil to ensure that the samples can fully contact with ambient air. Samples placed under strong light conditions were sealed with screw caps.

[5] = Solid stability test of crystal form A (crystal form); type: physicochemical
Excerpt: as §1

[6] = Plasma pharmacokinetic assay in mice; type: in vivo; conditions: mouse, female C57 BL/6 mice
Protocol: Twelve female C57 BL/6 mice were used in plasma pharmacokinetic assay, randomly divided into two groups, with 6 animals in each group. Animals in the first group were administered intravenously 1 mg/kg of the test drug, and animals in the second group were administered intragastrically 5 mg/kg of the test drug. A formula comprising HPbCD and cosolvent (Solutol®) was used as formulation vehicle, and the obtained intravenous or intragastric formulations were all clear solutions. For animals in the intravenous group and the intragastric group, blood was collected from the saphenous vein at 0.0833, 0.25, 0.5, 1, 2, 4, 8, and 24 hours after administration, with 3 samples at each time point. Plasma samples collected from the intragastric administration group were frozen at −80° C. and thawed before LC-MS/MS sample analysis. The thawed plasma samples were subjected to protein precipitation by adding acetonitrile containing an internal standard in a certain ratio, and centrifuged to obtain a supernatant for LC-MS/MS injection. AP14000 or 5500 was used as the analytical instrument, ACQUITY UPLC BEH C18 (2.1×50 mm, 1.7 μm) was used as the chromatographic column, and the ionization of the test compound was performed by an ESI positive or negative ion source. There were 8 concentrations of the standard sample in each analysis batch, the ratio of the peak area of the test compound to the peak area of the internal standard (IS) was noted as Y, the concentration of the test compound in the plasma sample was noted as X, 1/x^2 was taken as the weighting coefficient to carry on the linear regression, and the regression equation of response and concentration was obtained. There were also corresponding quality control samples in each analysis batch. Phoenix 6.3 WinNonlin® was used for data processing to give corresponding PK parameters.

pIC50 (CRTH2 receptor [1]): > 7.00
Compound: Cc1c(Cc2ccc3c(c2)C(F)(F)CCS3(=O)=O)c2cc(F)ccc2n1CC(=O)O [Compound 1]

Compound: O=C(O)CCn1c2c(c3ccccc31)C[C@H](NS(=O)(=O)c1ccc(F)cc1)CC2 [Ramatroban]
CRTH2 receptor antagonism (CRTH2 receptor [2]): weak CRTH2 receptor antagonist

Impurity Content ([4]; 0 Day (Table 5)): 0.07%
Impurity Content ([4]; 25° C/60% RH, 3 months): 0.09%
Impurity Content ([4]; 25° C/60% RH, 6 months): 0.13%
Impurity Content ([4]; 30° C/65% RH, 3 months): 0.09%
Impurity Content ([4]; 30° C/65% RH, 6 months): 0.15%
Impurity Content ([4]; 40° C/75% RH, 0 Day (Table 6)): 0.07%
Impurity Content ([4]; 40° C/75% RH, 1 month): 0.17%
Impurity Content ([4]; 40° C/75% RH, 2 months): 0.13%
Crystal Form ([5]; 40° C, Reletive Humidity 75%, Exposure, day 10): Crystal Form A
Crystal Form ([5]; 40° C, Reletive Humidity 75%, Exposure, day 30): Crystal Form A
Crystal Form ([5]; 40° C, Reletive Humidity 75%, Exposure, day 60): Crystal Form A
Crystal Form ([5]; 40° C, Reletive Humidity 75%, Exposure, day 90): Crystal Form A
Crystal Form ([5]; 60° C, Reletive Humidity 75%, Exposure, day 10): Crystal Form A
Crystal Form ([5]; 60° C, Reletive Humidity 75%, Exposure, day 30): Crystal Form A
Crystal Form ([5]; 60° C, Reletive Humidity 75%, Exposure, day 60): Crystal Form A
Crystal Form ([5]; 60° C, Reletive Humidity 75%, Exposure, day 90): Crystal Form A
Crystal Form ([5]; High Humidity (Room temperature/Reletive Humidity 92.5%, Exposure), day 5): Crystal Form A
Crystal Form ([5]; High Humidity (Room temperature/Reletive Humidity 92.5%, Exposure), day 10): Crystal Form A
Crystal Form ([5]; High Temperature (60° C., Exposure), day 5): Crystal Form A
Crystal Form ([5]; High Temperature (60° C., Exposure), day 10): Crystal Form A
Crystal Form ([5]; Strong Light (5000 lx, Sealed), day 5): Crystal Form A
Crystal Form ([5]; Strong Light (5000 lx, Sealed), day 10): Crystal Form A
Crystal Form ([5]; day 0): Crystal Form A
clearance ([6]; intravenous 1 mg/kg, read-out: Clearance Rate of Intravenous Administration (Cl, mL/min/kg)): 4.55 mL/min/kg
half-life ([6]; po, intragastric 5 mg/kg, read-out: Half-life of Intragastric Administration (T1/2, hr) (converted)): 3.19 h
Cmax ([6]; po, intragastric 5 mg/kg, read-out: Maximum Blood Concentration of Intragastric Administration (Cmax)): 6.77 µM
AUC ([6]; po, intragastric 5 mg/kg, read-out: Plasma Exposure of Intragastric Administration (AUC, nM*hr)): 26000 nM·h
Compound: Cc1c(Cc2ccc3c(c2)C(F)(F)CCS3(=O)=O)c2cc(F)ccc2n1CC(=O)O [Crystal Form A of Compound 1]
number of eosinophils [3]: significantly reduce the number of eosinophils
